| melting point [°C] | SMILES |
| --- | --- |
| 55 to 60 | CN(C)Cc1ncccc1O |
| 43 | Cc1ccc(S)cc1 |
| 135 | CSc1ccccc1/N=C/c1cc(C(C)(C)C)cc(C(C)(C)C)c1O |
| 219 | COc1cccc2cc(C(=O)O)oc12 |
| 201 | O=C(O)c1coc2ccccc2c1=O |
| 109 to 111 | NNS(=O)(=O)c1ccc(-c2ccccn2)s1 |
| 89 | OC1OC2(CCCCC2)Cc2ccccc21 (stereo unspecified) |
| 306 | O=C1c2ccccc2C(=O)c2cc(O)ccc21 |
| -17 | CC(C)c1ccc(C(C)C)cc1 |
| 90 | CC(C)=C1C2CCC1c1ccccc12 |
| 68 to 68.5 | CN(C)c1ccc(CCC2CCc3ccccc3N2)cc1 (stereo unspecified) |
| 73.5 | O=CN(c1ccccc1)c1ccccc1 |
| 81 to 84 | O=C(O)CSC=Cc1ccccc1 |
| 56 to 58 | C[C@H](O)c1ccccc1Br |
| 134 to 137 | CC(C)(C(=O)O)C(O)c1ccccc1 (stereo unspecified) |
| 82 to 85 | O=C(O)C(F)c1ccccc1 (stereo unspecified) |
| 160 to 163 | c1ccc(C2=NCCN=C2c2ccccc2)cc1 |
| 163 | NC(=O)c1ccccc1C(F)(F)F |
| 116 to 118 | O=C(Cl)c1cnn2ccccc12 |
| 104 | COc1ccc(C(=O)CBr)c(OC)c1 |
| 91 to 92 | CC(O)(c1cc2ccccc2o1)c1cc2ccccc2o1 |
| 210 | FC(F)(F)c1nc2ccccc2[nH]1 |
| 73 to 74 | Cc1nc2ccccn2c1Br |
| 44 to 46 | Nc1ccccc1-n1cccn1 |

| melting point [°C] | SMILES |
| --- | --- |
| 148 to 150 | Cc1ccc(Cl)c(C(=O)O)c1 |
| 103 | c1ccc(-c2cc3ccccc3cn2)cc1 |
| 117 to 120 | O=C(O)CCSC=Cc1ccccc1 |
| 212 to 214 | COc1ccc2oc(C(=O)O)cc2c1 |
| 193 | Cn1c(/C(C#N)=N/Nc2ccccc2Cl)nc2ccccc21 |
| 34 | OCCCc1ccccn1 |
| 53 to 56 | CC(=O)c1cc(Cl)ccc1O |
| 177 to 179 | COc1ccc(-c2cn3c(n2)sc2ccccc23)cc1 |
| 50 | N#Cc1cccc(S(=O)(=O)Cl)c1 |
| 70 to 71 | CCOC(=O)C(=O)c1ccc(Br)s1 |
| 23 | COc1cccc(C#N)c1 |
| 115 | O=C(Nc1nc(-c2ccc(Br)cc2)cs1)c1ccccc1 |
| 170 to 180 | Nc1cccc(C(=O)O)c1C(=O)O |
| 102 | NC(=O)COc1ccccc1 |
| 105 to 106 | Brc1ccc(N2CCCC2)cc1 |
| 207 to 209 | O=C(O)c1cccc(-c2ccccn2)c1 |
| 148 to 151 | N#Cc1ccccc1-n1ccnc1 |
| 140 to 144 | ON=C(c1ccccc1)c1ccccc1 |
| 65 to 69 | OCc1csc(-c2ccccc2)n1 |
| 92 to 95 | COc1ccc(C=CC(=O)c2ccc3ccccc3c2)cc1 |
| 161 to 163 | Cc1csc2nc3ccccc3n12 |
| 132 | CC(=O)c1ccc(O)c([N+](=O)[O-])c1 |
| 48 to 49 | Cn1nc(C(=O)Cl)cc1-c1cccs1 |
| 143 | CC1=C(Cl)CCP(=O)(c2ccccc2)C1 (stereo unspecified) |

The next lines start with the molecule.

| SMILES | melting point [°C] |
| --- | --- |
| c1ccc2c(c1)-c1cc3ccccc3c3cc4ccccc4c-2c13 | 232 |
| O=[N+]([O-])c1ccc(-c2ccc(NNc3ccccc3)cc2)cc1 | 165 |
| Cc1ccc(S(=O)(=O)Nc2ccc(Cl)cc2)cc1 | 120 |
| COc1ccc(OC)c(C=CC(=O)n2cnc3c(N)ncnc32)c1 | 260 to 262 |
| OCc1ccnc(Cl)c1 | 65.5 to 67.5 |
| NC(=O)C=CC(F)(F)F | 147 to 150 |
| CSc1nc2cc(NCc3ccc(Cl)cc3)ccc2[nH]1 | 248 |
| NC1(P(=O)(O)O)CCCC1 | 274 to 276 |
| Cc1cc(C)c(C2(C)CC(C(=NNC(N)=S)c3cc4ccccc4o3)C2)c(C)c1 (stereo unspecified) | 258 to 259 |
| Nc1nn2c(C(F)(F)F)cc(=O)[nH]c2c1/N=N/c1cccc(C(F)(F)F)c1 | 291 |
| CCOC(=O)Oc1c(-c2ccccc2)[nH]c2cc([N+](=O)[O-])ccc12 | 170 |
| N#Cc1cc(I)c(O)c([N+](=O)[O-])c1 | 138 |
| Cc1c([N+](=O)[O-])cc(C(C)C)c(O)c1[N+](=O)[O-] | 55.5 |
| Cc1nccc(O)c1OCc1ccc(Cl)cc1Cl | 218 to 222 |
| N#CC(=Cc1ccc([N+](=O)[O-])cc1)C(N)=S | 311 |
| COc1cccc2c(=O)c3c(n(C)c12)OC(C(C)C)C3 (stereo unspecified) | 119 |
| N#Cc1ccc(O)c([N+](=O)[O-])c1 | 143 to 148 |
| COc1c(Cl)c(Cl)c(O)c(Cl)c1Cl | 116 |
| CC1=C(CCO)SC2=Nc3nc(C)ncc3CN21 | 229 |
| C=CCN(CC=C)C(SC)=C(C#N)C(N)=O | 110 |
| CCOC(=O)Oc1c(OC)cc(C(=O)OC2CC3CN4CCc5c([nH]c6cc(OC)ccc56)C4CC3C(C(=O)OC)C2OC)cc1OC (stereo unspecified) | 177 |

| SMILES | melting point [°C] |
| --- | --- |
| OCCN(CCO)c1nc(N2CCCCC2)c2nc(N(CCO)CCO)ncc2n1 | 158 |
| CCCCOC(=O)C1=C(C)NC(C)=C(C(=O)OCCCC)C1c1ccco1 | 87 |
| CCn1c(=O)n(CC)c(=O)n(CC)c1=O | 96.8 |
| Cn1cnc(C(=O)O)c1 | 245 |
| Nc1ncc(Br)cn1 | 239 to 244 |
| CCOC(=O)C=C(C)N | 33 to 35 |
| Cc1csc(C(=O)NN)c1Cl | 130 to 132 |
| CC(=O)c1ccc(Cl)c(Cl)c1Cl | 62 |
| CCC(O)CO (stereo unspecified) | -50 |
| N#C/C(=N/Nc1cccc([N+](=O)[O-])c1)c1nc(-c2ccccc2)cs1 | 215 |
| CC(CC(=O)O)C(=O)O (stereo unspecified) | 118 |
| C#CC1(O)CCC2C3CCC4CCCCC4(C)C3CCC21C (stereo unspecified) | 155 |
| CN1CCN(C(=S)SSC(=S)N2CCN(C)CC2)CC1 | 142 to 143 |
| C=CCN(CC=C)C(=O)CCl | 25 |
| CC1CCC(C(C)C)C(=O)C1 (single isomer, unassigned; (-)) | -6 |
| ClCC(Cl)C(Cl)=C(Cl)C(Cl)CCl (stereo unspecified) | 58.5 |
| CCOC(=O)c1cc2cc([N+](=O)[O-])ccc2o1 | 150 to 155 |
| COc1cc2c(cc1OC)C(c1ccc(C)cc1)N(C(C)=O)CC2 (stereo unspecified) | 183 to 185 |
| COc1cc(OC(F)(F)F)ccc1C#N | 35 |
| ICc1ccccc1 | 24.5 |
| CC(C)(C)OC(=O)N1CCSCC1C(=O)O (stereo unspecified) | 145 to 147 |

| SMILES | melting point [°C] |
| --- | --- |
| CN1C(=O)CN(C(=O)OC(C)(C)C)[C@@H]1C(C)(C)C | 66 to 70 |
| O=C(O)CC(=O)CC(=O)O | 133 |
| Cc1cc(C(C)(C)C)c(O)c(C)c1CC1=NCCN1 | 182 |
| CSc1scnc1S(=O)(=O)c1ccc(C)cc1 | 169 to 171 |
| c1n[nH]c2c1CCCC2 | 82 |
| CC(Br)C(Br)CBr (stereo unspecified) | -19 |
| CC(C)(C)OC(=O)N1CC(C(=O)O)C1 | 102 |
| Cc1c(NN=C2C(=O)NN=C2c2c(O)c3ccccc3n(C)c2=O)c(=O)n(-c2ccccc2)n1C | 200 |
| O=C(Nc1ccc(Cl)c(Cl)c1)c1cc(Cl)ccc1O | 247 |
| CC(Cl)C(C)Cl (stereo unspecified) | -80 |
| Oc1ccc(Cl)cc1Cc1cc(Cl)ccc1O | 178 |
| CCCN(CCC)c1c([N+](=O)[O-])cc(S(C)(=O)=O)cc1[N+](=O)[O-] | 150 |
| CCCCCCCl | -94 |
| COC(=O)c1c2c(c(C)c3c1C(C)C3=O)C(=O)C2 (stereo unspecified) | 150 |
| N#CC(=Cc1ccc(O)cc1)C(=O)O | 250 to 253 |
| Cn1cc2cc([N+](=O)[O-])ccc2n1 | 129 |
| O=C=Nc1ccc(-c2ccco2)cc1 | 66 |
| COC(=O)c1ccc(C(=O)O)cc1[N+](=O)[O-] | 175 |
| Nc1ccc(O)c2c1C(=O)c1c(O)ccc(N)c1C2=O | 300 |
| Cc1ccccc1N1CSc2nnc(-c3cccc([N+](=O)[O-])c3)n2C1 | 239 to 240 |
| CC(=O)OCC1=C(C(=O)O)N2C(=O)C(N)C2SC1 (stereo unspecified) | 300 |

| SMILES | melting point [°C] |
| --- | --- |
| Cc1ccc(C)c2c1C(=O)OC2=O | 195 |
| O=C(O)c1ccc(O)nn1 | 246 to 247 |
| COC(=O)c1scc(S(=O)(=O)Cc2ccco2)c1N | 152 to 154 |
| Cc1cnc(NS(=O)(=O)c2ccc(N)cc2)nc1 | 262 |
| CC(=O)N1CCN(c2ccc(OCC3COC(Cn4ccnc4)(c4ccc(Cl)cc4Cl)O3)cc2)CC1 (stereo unspecified) | 146 |
| CNC(=C[N+](=O)[O-])NCCSCc1csc(CN(C)C)n1 | 203 |
| CNCc1nn(C)c2ccccc12 | 37 to 40 |
| Oc1ncnc2[nH]cnc12 | 250 |
| Clc1ncnc2ccsc12 | 125 to 126 |
| CC1CCC(C)(COC(=O)c2ccc([N+](=O)[O-])cc2)C1(C)C (stereo unspecified) | 95 |
| O=C(Nc1c(Cl)cccc1Cl)C(C(F)(F)F)C(F)(F)F | 196 |
| N#Cc1ccnc(N2CCCCC2)c1 | 55 to 57 |
| O=C(O)c1cc(-c2ccc(-c3cc(C(=O)O)c4ccccc4n3)cc2)nc2ccccc12 | > 315 |
| Fc1ccc(CBr)c(Cl)c1 | 37 |
| CC12CCC3C4CCC(=O)C(O)=C4CCC3C1CCC2O (stereo unspecified) | 189 |
| ClC(Cl)(Br)C(Cl)(Cl)Br | 220 to 222 |
| O=C1CCCN1CCO | 20 |
| COc1ccc(C(=NCc2ccccc2)c2ccc(OC)cc2)cc1 | 90 |
| COc1ccc(-c2ccnc(S)n2)cc1 | 202 |
| CC(C=CC=C(C)C=CC1=C(C)CCCC1(C)C)=CC=CC=C(C)C=CC=C(C)C=CC1=C(C)C(=O)CCC1(C)C | 179 |
